# Values of other authors, collected in US12297161B2, “Process for making sarecycline hydrochloride” (PARATEK PHARMACEUTICALS, INC., priority 2018, dated 2025).
# What was measured:
# [1] = test system: aerobic Gram-negative gastrointestinal (GI) organisms; settings: compared with minocycline and doxycycline
# [2] = in vivo
smiles,measurement,setting,value
"CON(C)Cc1ccc(O)c2c1C[C@H]1C[C@H]3[C@H](N(C)C)C(O)=C(C(N)=O)C(=O)[C@@]3(O)C(O)=C1C2=O [Sarecycline, (4S, 4aS, 5aR, 12aS)-4-dimethylamino-3, 10, 12, 12a-tetrahydroxy-7-[(methoxy (methyl)amino)-methyl]-1, 11-dioxo-1,4,4a, 5,5a, 6, 11, 12a-octahydro-naphthacene-2-carboxylic acid amide]",antibacterial activity against aerobic Gram-negative gastrointestinal (GI) organisms,[1],more limited activity against aerobic Gram-negative gastrointestinal (GI) organisms than minocycline and doxycycline
same,inflammatory lesions of moderate to severe acne vulgaris,[2],reduce inflammatory lesions
